Here are results for one substance from US6599713B1, “Method for quantitating leukocyte count in whole blood sample” (priority 1999, dated 2003).

The subject of this experiment is white blood cells contained in the whole blood. Kind of experiment: Concentration of surfactant and release amount of MPO in whole blood, ELISA (Example 2). As to conditions: 60 minutes on ice, mean ± SD of 3. Format: cell-based, human. The procedure:
10 ml of healthy human whole blood was collected and immediately mixed with 10 mg of EDTA-2K (manufactured and sold by Dojin Laboratories, Japan), and the resultant EDTA-containing whole blood sample was subjected to the below-described various measurements within 1 hour from the blood collection.
500 μl of the blood was put in a 2-ml Eppendorf tube, and 500 μl of an aqueous surfactant solution having a surfactant concentration of 0.1, 0.2, 0.4, 0.6, 1, 2, 4, 10 or 20% (w/v) was added to the tube, and the resultant mixture was stirred for 2 seconds by a Vortex mixer. Subsequently, the mixture was allowed to stand for 60 minutes on ice to thereby lyze the white blood cells. […] After the lysis of the white blood cells, 100 μl of the mixture was taken out and added to 900 μl of a PBS solution containing dissolved therein 1% BSA (trade name: “Sigma fraction V”, manufactured and sold under the brand of SIGMA™, U.S.A.). The resultant mixture was stirred by a Vortex mixer, and then 10 μl of the mixture was taken out and diluted 2,000-fold with 1% BSA/PBS solution. The resultant diluted mixture was subjected to a measurement by ELISA.
The outline of the ELISA is as follows. A 5 μg/ml PBS solution of a rabbit anti-human myeloperoxidase antibody (manufactured and sold by Calbiochem-Novabiochem Corporation, U.S.A.)(hereinafter, frequently referred to as “anti-MPO antibody”) was put into the wells of a Nunc Immuno Plate (manufactured and sold by Nalge Nunc International, Denmark) in an amount of 100 μl per well. The solution in each well was sealed and subjected to a reaction for 18 hours at 4° C. thereby immobilizing the primary antibody. The wells were washed with a washing solution (0.05% Tween™ 20/PBS) and then subjected to blocking for 1 hour at room temperature by using 200 μl of a blocking solution (1% BSA/PBS), and then washed twice with the washing solution. Then, the above-obtained diluted mixture (blood sample which had been treated with a surfactant and then diluted) was put in the wells in an amount of 100 μl per well, and subjected to a reaction for 2 hours at room temperature. Then, the wells were washed 3 times with the washing solution, and a 5 μg/ml solution of an anti-MPO antibody labeled with horseradish peroxidase (hereinafter referred to as “HRP”) was put in the wells in an amount of 100 μl per well, and subjected to a reaction for 1 hour at room temperature. As the above-mentioned HRP-labeled anti-MPO antibody, an anti-human MPO antibody (manufactured and sold by Calbiochem-Novabiochem Corporation, U.S.A.) which had been labeled with HRP Grade IV (manufactured and sold under the brand of SIGMA™, U.S.A.) was employed. The labeling was performed by the method described in Analytical Biochemistry, 132, 68-73 (1983). The wells were washed 5 times with the washing solution, and 100 1 μl of a just-prepared TMB solution (manufactured and sold by Kirkegaad & Perry Laboratories, U.S.A.) was added thereto to effect a color reaction. 2 Minutes after the start of the color reaction, 100 μl of a 1 N sulfuric acid solution (manufactured and sold by Nacalai Tesque, Inc., Japan) was added to the wells to thereby terminate the reaction. Then, the absorbance at 450 nm was measured by means of a plate reader (manufactured and sold by Bio-Rad Laboratories, U.S.A.). The measurement was conducted 3 times, and a mean value±standard deviation was obtained.

Take “α-[4-(1,1,3,3,-Tetramethylbutyl)phenyl]-ω-hydroxypoly(oxy-1,2-ethanediyl) [Triton ™ X-100]”: the “Release amount of MPO in whole blood” value is, setting by setting: (concentration of surfactant 0.05 % (w/v)) 0.104 ± 0.005 Abs. 450 nm; (concentration of surfactant 0.10 % (w/v)) 0.161 ± 0.009 Abs. 450 nm; (concentration of surfactant 0.20 % (w/v)) 0.202 ± 0.006 Abs. 450 nm; (concentration of surfactant 0.30 % (w/v)) 0.228 ± 0.009 Abs. 450 nm; (concentration of surfactant 0.50 % (w/v)) 0.262 ± 0.005 Abs. 450 nm; (concentration of surfactant 1.00 % (w/v)) 0.245 ± 0.011 Abs. 450 nm. The “Release amount of MPO in whole blood” value (concentration of surfactant 2.00 % (w/v)) is reported as 0.216 ± 0.004 Abs. 450 nm, the “Release amount of MPO in whole blood” value (concentration of surfactant 5.00 % (w/v)) is reported as 0.228 ± 0.007 Abs. 450 nm and the “Release amount of MPO in whole blood” value (concentration of surfactant 10.00 % (w/v)) came to 0.227 ± 0.007 Abs. 450 nm.
